Common to all, as to format: in vivo
What all share (conditions): 144 h, single compound, after 6 d

Test [1] deals with Myzus persicae. The experiment in a line: Myzus persicae test, spray treatment of infested cabbage leaves. As to the method:
(§1) To produce a suitable preparation of active compound, 1 part by weight of active compound is mixed with the stated amount of solvent and emulsifier, and the concentrate is diluted with emulsifier-containing water to the desired concentration.
Cabbage leaves (Brassica oleracea) which are heavily infested by the green peach aphid (Myzus persicae) are treated by being sprayed with the preparation of the active compound at the desired concentration.
After the specified period of time, the mortality in % is determined. 100% means that all the aphids have been killed; 0% means that none of the aphids have been killed.

Test [2] deals with Phaedon cochleariae. The experiment in a line: Phaedon cochleariae larvae test, sprayed cabbage leaves. As to the method: as §1
Cabbage leaves (Brassica oleracea) are treated by being sprayed with the preparation of the active compound at the desired concentration and are infested with larvae of the mustard beetle (Phaedon cochleariae) as long as the leaves are still moist.
After the specified period of time, the mortality in % is determined. 100% means that all the beetle larvae have been killed; 0% means that none of the beetle larvae have been killed. According to the present application in this test e.g. the following combinations show a synergistic effect in comparison to the single compounds: […]

In test [3] the test system is Tetranychus urticae. Put plainly: Tetranychus test (OP-resistant), sprayed bean plants. As to the method: as §1
Bean plants (Phaseolus vulgaris) which are heavily infested with all stages of the two-spotted spider mite (Tetranychus urticae) are treated by being sprayed with the preparation of the active compound at the desired concentration.
After the specified period of time, mortality in % is determined. 100% means that all the spider mites have been killed; 0% means that none of the spider mites have been killed.

Test [4] has as its system Spodoptera frugiperda. The experiment in a line: Spodoptera frugiperda test, sprayed cabbage leaves. The method, then: as §1
Cabbage leaves (Brassica oleracea) are treated by being sprayed with the preparation of the active compound at the desired concentration and are infested with larvae of the fall army worm (Spodoptera frugiperda) as long as the leaves are still moist.
After the specified period of time, the mortality in % is determined. 100% means that all the caterpillars have been killed; 0% means that none of the caterpillars have been killed. According to the present application in this test e.g. the following combinations show a synergistic effect in comparison to the single compounds: […]

The structures appear in SMILES notation.

As for `CC(C1CC1)C(O)(Cn1cncn1)c1ccc(Cl)cc1` (stereo not drawn) [Cyproconazole, cyproconazole], the mortality at 500 g/ha in test [1], in test [2] and in test [3] (500 g/ha) was 0% throughout.

As for `CC(C)C1CCC(Cc2ccc(Cl)cc2)C1(O)Cn1cncn1` (stereo not drawn) [Ipconazole, ipconazole], the mortality at 500 g/ha in test [1], in test [2] and in test [4] was 0% each time.

In test [1], `OC(Cc1ccccc1Cl)(Cn1nc[nH]c1=S)C1(Cl)CC1` (stereo not drawn) [Prothioconazole] returned a mortality at 500 g/ha of 0%.

Take `CC(C)(C)C(O)(CCc1ccc(Cl)cc1)Cn1cncn1` (stereo not drawn) [Tebuconazole, tebuconazole]: the mortality at 500 g/ha in test [1], in test [2] and in test [4] was 0% in each case.

As for `CC1(C)[C@H](C=C(Cl)Cl)[C@H]1C(=O)OCc1c(F)c(F)cc(F)c1F` [Transfluthrin], the mortality at 20 g/ha in test [1] (20 g/ha) and in test [2] (20 g/ha) was 0% throughout. Besides, the values for the mortality at 100 g/ha in test [1] (100 g/ha) and in test [3] (100 g/ha) were 80% and 0%, respectively. In addition, the mortality at 4 g/ha in test [4] (4 g/ha) is 50%.

The values are drawn from US20110212834A1, “Pesticidal Compound Mixtures” (BAYER CROPSCIENCE AG, priority 2009, published 2011).
